From publication doi:10.1101/158956v2 (biorxiv, 2017) come the findings set out here.

The target of one data set is T1, EcFumA (Escherichia coli, UniProt P0AC33).
T1 sequence (P0AC33 2-548): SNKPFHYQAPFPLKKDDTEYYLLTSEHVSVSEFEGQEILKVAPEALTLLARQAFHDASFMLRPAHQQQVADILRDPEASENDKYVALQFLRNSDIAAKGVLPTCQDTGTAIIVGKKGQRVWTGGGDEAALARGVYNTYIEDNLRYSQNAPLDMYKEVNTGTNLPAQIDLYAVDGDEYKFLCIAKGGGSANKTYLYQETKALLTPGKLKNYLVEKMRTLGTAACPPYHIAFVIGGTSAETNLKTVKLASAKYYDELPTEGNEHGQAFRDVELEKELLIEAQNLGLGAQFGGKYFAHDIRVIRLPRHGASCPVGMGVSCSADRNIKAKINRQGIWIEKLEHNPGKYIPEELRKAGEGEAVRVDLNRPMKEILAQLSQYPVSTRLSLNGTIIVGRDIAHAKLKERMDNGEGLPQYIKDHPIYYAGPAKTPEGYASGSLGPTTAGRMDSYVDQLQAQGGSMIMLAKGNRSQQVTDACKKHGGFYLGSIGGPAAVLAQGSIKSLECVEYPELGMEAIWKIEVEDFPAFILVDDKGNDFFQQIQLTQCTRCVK
The data set is described as follows: spectrophotometric initial velocity. Format: biochemical.

Data set [1] addresses T2, PfFHΔ40 (PfFΔ40) (Plasmodium falciparum, UniProt Q8I2N6).
T2 sequence (Q8I2N6 41-681): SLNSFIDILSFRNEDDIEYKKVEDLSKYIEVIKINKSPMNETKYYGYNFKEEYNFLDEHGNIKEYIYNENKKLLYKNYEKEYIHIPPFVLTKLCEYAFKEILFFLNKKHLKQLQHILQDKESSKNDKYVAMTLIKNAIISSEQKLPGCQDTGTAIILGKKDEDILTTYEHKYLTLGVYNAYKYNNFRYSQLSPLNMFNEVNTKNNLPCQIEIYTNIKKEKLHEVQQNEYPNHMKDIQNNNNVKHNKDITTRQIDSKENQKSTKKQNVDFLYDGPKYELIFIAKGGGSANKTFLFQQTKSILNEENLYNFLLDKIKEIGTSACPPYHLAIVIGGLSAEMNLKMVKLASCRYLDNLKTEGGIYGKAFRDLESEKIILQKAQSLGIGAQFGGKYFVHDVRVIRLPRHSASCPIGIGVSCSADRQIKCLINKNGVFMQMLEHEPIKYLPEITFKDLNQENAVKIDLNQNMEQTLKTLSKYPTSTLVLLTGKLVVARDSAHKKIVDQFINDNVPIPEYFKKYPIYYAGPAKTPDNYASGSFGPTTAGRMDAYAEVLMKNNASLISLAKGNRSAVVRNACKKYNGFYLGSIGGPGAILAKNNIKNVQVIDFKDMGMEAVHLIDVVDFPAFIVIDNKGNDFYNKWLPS
The data set is described as follows: spectrophotometric initial velocity, global fit to competitive model. Format: biochemical.

Data set [2] has as its target T2, PfFHΔ40 (PfFΔ40). The data set is described as follows: spectrophotometric initial velocity, Michaelis-Menten fit. Particulars: 50 mM Tris-HCl pH 8.5, 37 °C.
The target in data set [3] is T2, PfFHΔ40 (PfFΔ40). Briefly: spectrophotometric initial velocity. The class given is biochemical.
A further data set deals with T3, EcFumC (Escherichia coli, UniProt P05042).
T3 sequence (P05042 1-467): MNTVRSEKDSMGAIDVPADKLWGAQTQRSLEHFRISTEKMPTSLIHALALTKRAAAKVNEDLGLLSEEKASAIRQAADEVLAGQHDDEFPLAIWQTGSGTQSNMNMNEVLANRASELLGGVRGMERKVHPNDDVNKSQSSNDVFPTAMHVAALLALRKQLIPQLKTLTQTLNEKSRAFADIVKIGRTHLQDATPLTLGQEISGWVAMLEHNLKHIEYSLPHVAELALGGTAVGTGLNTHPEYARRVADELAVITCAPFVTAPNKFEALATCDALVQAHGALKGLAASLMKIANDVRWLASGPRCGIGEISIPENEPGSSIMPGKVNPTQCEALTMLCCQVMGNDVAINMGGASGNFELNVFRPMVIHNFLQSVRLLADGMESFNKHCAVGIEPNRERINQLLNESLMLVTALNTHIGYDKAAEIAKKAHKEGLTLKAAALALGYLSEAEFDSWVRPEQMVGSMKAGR
The data set is described as follows: spectrophotometric initial velocity. Format: biochemical.

Substrate in data set [4]: C/C(=C\C(=O)O)C(=O)O
Briefly: purified protein. Particulars: 50 mM Tris-HCl pH 8.5, 37 °C.

Substrate in data set [5]: O=C(O)C[C@H](O)C(=O)O
The data set is described as follows: purified protein. The conditions noted are these: 50 mM Tris-HCl pH 8.5, 37 °C.

Take `O=C(O)CC(S)C(=O)O` (racemic) [DL-mercaptosuccinic acid]: the results for the Ki at EcFumA and on PfFHΔ40 (PfFΔ40) [1] were 2.9 ± 0.22 µM and 0.548 ± 0.046 µM, respectively.
Regarding `O=C(O)/C=C/C(=O)O` [fumarate], the Km – broadly, the substrate concentration at which the rate is half of its maximum – at PfFHΔ40 (PfFΔ40) [2] worked out at 2600 ± 300 µM.
In the case of `O=C(O)C(O)C(O)C(=O)O` (stereo not drawn) [meso-tartrate], the figures for the Ki at PfFHΔ40 (PfFΔ40) [3], at EcFumC and on EcFumA were 114 ± 17 µM, 652 µM and 625 µM, respectively.

B1: PfFHΔ40 (PfFΔ40) (Plasmodium falciparum 3D7) (protein)
chain: T2 sequence (Q8I2N6 41-681)
On to B1, for which the Km was determined as 3200 ± 300 µM in the data set “purified protein [4]” and 1200 ± 100 µM in “purified protein [5]”.
